Test results from patent US8067459B2, “Lapachone compounds and methods of use thereof” (ArQule, Inc., priority 2007, dated 2011).
Read-outs that look alike come from different tables or passages of the source.

What was measured:
[1] = system: A549 human lung carcinoma cells; test: MTS cell viability assay, A549 lung carcinoma cells; assay type: cell-based; details: read-out: IC50 Values, Cancerous Cells, Lung A549
Method: (§1) Cell viability was determined by measuring the activity of dehydrogenase enzymes in metabolically active cells using a tetrazolium compound, MTS. The assay was performed as described in Promega Technical Bulletin No. 169 (CellTiter 96 Aqueous Non-Radioactive Cell Proliferation Assay): All cells lines were grown in DMEM media (4.5 g/L glucose) supplemented with 15% heat-inactivated FBS, 10 mM L-glutamine, and 10 mM HEPES. Briefly, cells were seeded in 96-well plates and incubated for 16 to 24 hours; test compounds were serially diluted in DMSO, further diluted in cell culture media, then added to cells (final DMSO concentration of 0.33% v/v); cells were incubated in the presence of compound for 4 hours; MTS was added to the cells and incubated for four hours; SDS was added to a final concentration of 1.4% v/v and absorbance at 490 nm was measured within two hours using a plate reader. The amount of […] absorbance was directly proportional to the number of living cells in the culture.
(§2) The assays of the present invention as shown in Table 1 and methods of measuring induction of E2F1 activity and elevation of E2F1 levels can be carried out following the descriptions found in Li et al., (2003) Proc Natl Acad Sci USA. 100(5): 2674-8 and U.S. Patent Application Publication No. 2002/0169135, both incorporated herein by reference.

[2] = system: DLD-1 human colon carcinoma cells; test: MTS cell viability assay, DLD-1 colon carcinoma cells; assay type: cell-based; details: read-out: IC50 Values, Cancerous Cells, Colon DLD-1
Method: as §1, §2

[3] = system: DU-145 human prostate carcinoma cells; test: MTS cell viability assay, DU-145 prostate carcinoma cells; assay type: cell-based; details: read-out: IC50 Values, Cancerous Cells, Prostate DU-145
Method: as §1, §2

[4] = system: K-562 human leukemia cells; test: MTS cell viability assay, K-562 leukemia cells; assay type: cell-based; details: read-out: IC50 Values, Cancerous Cells, Leukemia K-562
Method: as §1, §2

[5] = system: PACA-2 human pancreatic carcinoma cells; test: MTS cell viability assay, PACA-2 pancreatic carcinoma cells; assay type: cell-based; details: read-out: IC50 Values, Cancerous Cells, Pancreas PACA-2
Method: as §1, §2

[6] = system: NCM-460 normal colon epithelial cells; test: MTS cell viability assay, NCM-460 normal colon cells; assay type: cell-based; details: for IC50: Homo sapiens, read-out: IC50 Values, Normal Cells, Colon NCM-460; for Fold Selectivity (NCM-460/DLD1): ratio of IC50 NCM-460 to IC50 DLD-1
Method: Since β-lapachone induces cell death only in cancer cell lines and not in normal cells (Li et al., (2003) Proc Natl Acad Sci USA. 100(5): 2674-8), the present compounds were also tested in a panel of normal cell lines from a variety of tissues including NCM-460 normal colon epithelial cells.
as §1, §2

human cancer cell lines = details: single agent; typical range; read-out: antineoplastic activity against human cancer cell lines (IC50); cited from earlier work
[7] = system: normal fresh or proliferating human PBMC; details: cited from earlier work
E2F1 checkpoint pathway = details: earlier studies with β-lapachone; cited from earlier work
[8] = A549, 4 hours with compound, MTS
[9] = DLD-1, 4 hours with compound, MTS
[10] = DU-145, 4 hours with compound, MTS
[11] = K562, K-562, 4 hours with compound, MTS
[12] = PACA-2, 4 hours with compound, MTS
[13] = NCM460, NCM-460, 4 hours with compound, MTS

SMILES	IC50 [1, 8] [µM]	IC50 [2, 9] [µM]	IC50 [3, 10] [µM]	IC50 [4, 11] [µM]	IC50 [5, 12] [µM]	IC50 [6, 13] [µM]	Fold Selectivity (NCM-460/DLD1) [6]	other results
COC(=O)C1(C)CSC2=C(O1)c1ccccc1C(=O)C2=O (stereo not shown)	–	–	–	–	–	–	–	melting point: 188 to 189 °C
CCOC(=O)N1CCN(CC2CSC3=C(O2)c2ccccc2C(=O)C3=O)CC1 (stereo not shown) [Compound 1, ethyl 4-[(5,6-dioxo-2,3,5,6-tetrahydronaphtho[1,2-b][1,4]oxathiin-2-yl)methyl]piperazine-1-carboxylate]	4.77	1.84	4.01	2.93	1.95	4.78	2.6	–
O=C1C(=O)c2ccccc2C2=C1SCC(CN1CCC(CO)CC1)O2 (stereo not shown) [Compound 2, 2-{[4-(hydroxymethyl)piperidin-1-yl]methyl}-2,3-dihydronaphtho[1,2-b][1,4]oxathiine-5,6-dione]	11.7	2.05	3.88	2.84	1.64	10.8	5.3	–
O=C1C(=O)c2ccccc2C2=C1SCC(CN1CCC(O)CC1)O2 (stereo not shown) [Compound 3, 2-[(4-hydroxypiperidin-1-yl)methyl]-2,3-dihydronaphtho[1,2-b][1,4]oxathiine-5,6-dione]	–	–	–	–	–	–	–	melting point: 98 to 100 °C
COC(CN(C)CC1CSC2=C(O1)c1ccccc1C(=O)C2=O)OC (stereo not shown) [Compound 4, 2-{[(2,2-dimethoxyethyl)(methyl)amino]methyl}-2,3-dihydronaphtho[1,2-b][1,4]oxathiine-5,6-dione]	–	–	–	–	–	–	–	melting point: 80 to 82 °C
O=C1C(=O)c2ccccc2C2=C1SCC(CN1CCN(c3ccc(F)cc3)CC1)O2 (stereo not shown) [Compound 5, -{[4-(4-fluorophenyl)piperazin-1-yl]methyl}-2,3-dihydronaphtho[1,2-b][1,4]oxathiine-5,6-dione]	4.79	1.57	1.49	2.68	1.34	9.83	6.3	–
O=C1C(=O)c2ccccc2C2=C1SCC(CNCCc1ccccc1)O2 (stereo not shown) [Compound 6, 2-{[(2-phenylethyl)amino]methyl}-2,3-dihydronaphtho[1,2-b][1,4]oxathiine-5,6-dione]	12.9	4.01	4.67	5.29	3.78	17.1	4.3	–
O=C1C(=O)c2ccccc2C2=C1SCC(CNCc1ccccc1)O2 (stereo not shown) [Compound 7, 2-[(benzylamino)methyl]-2,3-dihydronaphtho[1,2-b][1,4]oxathiine-5,6-dione]	11.3	2.95	4.22	3.89	2.75	11.4	3.9	–
CC(C)NC(=O)CN1CCN(CC2CSC3=C(O2)c2ccccc2C(=O)C3=O)CC1 (stereo not shown) [Compound 8, 2-{4-[(5,6-dioxo-2,3,5,6-tetrahydronaphtho[1,2-b][1,4]oxathiin-2-yl)methyl]piperazin-1-yl}-N-isopropylacetamide]	–	–	–	–	–	–	–	melting point: 85 to 87 °C
O=C1C(=O)c2ccccc2C2=C1SCC(CN1CCC3(CC1)OCCO3)O2 (stereo not shown) [Compound 9, 2-(1,4-dioxa-8-azaspiro[4.5]dec-8-ylmethyl)-2,3-dihydronaphtho[1,2-b][1,4]oxathiine-5,6-dione]	–	–	–	–	–	–	–	melting point: 202 to 204 °C
O=C(Nc1ccccc1)OCC1CSC2=C(O1)c1ccccc1C(=O)C2=O (stereo not shown) [Compound 11, (5,6-dioxo-2,3,5,6-tetrahydronaphtho[1,2-b][1,4]oxathiin-2-yl)methyl phenylcarbamate]	5.44	1.36	4.05	2.73	2.05	7.65	5.6	–
CC(C)NC(=O)OCC1CSC2=C(O1)c1ccccc1C(=O)C2=O (stereo not shown) [Compound 12, (5,6-dioxo-2,3,5,6-tetrahydronaphtho[1,2-b][1,4]oxathiin-2-yl)methyl isopropylcarbamate]	4.66	2.17	3.72	1.51	1.68	5.92	2.7	–
CCCC1CCOC2=C(S1)C(=O)C(=O)c1ccccc12 (stereo not shown) [Compound 13, 4-propyl-3,4-dihydro-2H-naphtho[1,2-b][1,4]oxathiepine-6,7-dione]	–	–	–	–	–	–	1.4	IC50 ([1]; A549, 4 h): > 100 µM; IC50 ([2]; DLD-1, 4 h): 12.9 µM; IC50 ([3]; DU-145, 4 h): 13.2 µM; IC50 ([4]; K562, 4 h): 10.9 µM; IC50 ([5]; PaCa-2, 4 h): 12.1 µM; IC50 ([6]; NCM460, 4 h): 18.6 µM
CC1CSC2=C(O1)c1cc(-c3ccccc3)ccc1C(=O)C2=O (stereo not shown) [Compound 14, 2-methyl-9-phenyl-2,3-dihydronaphtho[1,2-b][1,4]oxathiine-5,6-dione]	> 100	3.8	3.79	4.61	3.39	10.1	2.7	–
CC1CSC2=C(O1)c1cc(N3CCCCC3)ccc1C(=O)C2=O (stereo not shown) [Compound 15, 2-methyl-9-piperidin-1-yl-2,3-dihydronaphtho[1,2-b][1,4]oxathiine-5,6-dione]	> 100	32.8	> 100	58.2	32.4	33.6	1.0	–
O=C1C(=O)c2ccccc2C2=C1SCC(COc1cccnc1)O2 (stereo not shown) [Compound 17, 2-[(pyridin-3-yloxy)methyl]-2,3-dihydronaphtho[1,2-b][1,4]oxathiine-5,6-dione]	5.08	2.39	3.82	2.89	2.04	5.61	2.3	–
CC1(C)CCC2=C(O1)c1ccccc1C(=O)C2=O [β-lapachone, 3,4-dihydro-2,2-dimethyl-2H-naphtho[1,2-b]pyran-5,6-dione]	–	–	–	–	–	–	–	IC50 (human cancer cell lines): 1 to 10 µM; cytotoxic effects on normal human PBMC [7]: No cytotoxic effects; activation of E2F1 checkpoint pathway in nuclei of cancer cells but not in normal cells (E2F1 checkpoint pathway): induces activation of E2F1 checkpoint pathway
